Where “and” joins values, the source holds several entries; their conditions need not be identical. Equal values may be shown once. Inconclusive results and toxic doses are left out. How the source made its calls: active means survival T/C of 150% or more; inactive means T/C below 125% in these data. Residues, ends and D or L forms follow the SMILES beside them. *: point of attachment. Dnp = O=[N+]([O-])c1ccc(*)c([N+](=O)[O-])c1
Test system: CD2F1 mice, L1210 leukemia ip, survival T/C
Experiment: NCI In Vivo Anticancer Drug Screen. Data for tumor model L1210 Leukemia (intraperitoneal) in CD2F1 (CDF1) mice
Conditions: higher = longer survival
In short: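 Activity against a transplanted murine tumor was judged by comparing the compound group with a vehicle group. The outcome in the treated animals was divided by that in the controls.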

[1] = endpoint: mean survival time, dose: 100.0 mg/kg/injection, schedule: Q01DX009 (ip), vehicle: saline
[2] = endpoint: mean survival time, dose: 200.0 mg/kg/injection, schedule: Q01DX009 (ip), vehicle: saline
[3] = endpoint: mean survival time, dose: 400.0 mg/kg/injection, schedule: Q01DX009 (ip), vehicle: saline
[4] = endpoint: mean survival time, dose: 25.0 mg/kg/injection, schedule: Q01DX009 (ip), vehicle: saline with Tween-80
[5] = endpoint: mean survival time, dose: 50.0 mg/kg/injection, schedule: Q01DX009 (ip), vehicle: saline with Tween-80
[6] = endpoint: mean survival time, dose: 100.0 mg/kg/injection, schedule: Q01DX009 (ip), vehicle: saline with Tween-80
[7] = endpoint: mean survival time, dose: 100.0 mg/kg/injection, schedule: Q01DX001 (ip), vehicle: saline with Tween-80
[8] = endpoint: mean survival time, dose: 200.0 mg/kg/injection, schedule: Q01DX001 (ip), vehicle: saline with Tween-80
[9] = endpoint: mean survival time, dose: 400.0 mg/kg/injection, schedule: Q01DX001 (ip), vehicle: saline with Tween-80
[10] = endpoint: mean survival time, dose: 200.0 mg/kg/injection, schedule: Q01DX009 (ip), vehicle: saline with Tween-80
[11] = endpoint: mean survival time, dose: 100.0 mg/kg/injection, schedule: Q04DX002 (ip), vehicle: saline with Tween-80
[12] = endpoint: mean survival time, dose: 100.0 mg/kg/injection, schedule: Q04DX003 (ip), vehicle: saline with Tween-80
[13] = endpoint: mean survival time, dose: 200.0 mg/kg/injection, schedule: Q04DX002 (ip), vehicle: saline with Tween-80
[14] = endpoint: mean survival time, dose: 200.0 mg/kg/injection, schedule: Q04DX003 (ip), vehicle: saline with Tween-80
[15] = endpoint: mean survival time, dose: 400.0 mg/kg/injection, schedule: Q01DX009 (ip), vehicle: saline with Tween-80
[16] = endpoint: mean survival time, dose: 400.0 mg/kg/injection, schedule: Q04DX002 (ip), vehicle: saline with Tween-80
[17] = endpoint: mean survival time, dose: 400.0 mg/kg/injection, schedule: Q04DX003 (ip), vehicle: saline with Tween-80

Measured: T/C

CCC(CO)(CO)[N+](=O)[O-]
inactive: [1] 100 % of control | [2] 100 % of control | [3] 94 % of control

CCCCCCCCCCSS(=O)(=O)O
inactive: endpoint: mean survival time, dose: 25.0 mg/kg/injection, schedule: Q01DX001 (ip), vehicle: other 105 % of control | endpoint: mean survival time, dose: 50.0 mg/kg/injection, schedule: Q01DX001 (ip), vehicle: other 96 % of control | endpoint: mean survival time, dose: 100.0 mg/kg/injection, schedule: Q01DX001 (ip), vehicle: other 96 % of control

CCCc1ccc(NS(=O)(=O)c2ccc(C)cc2)cc1
inactive: endpoint: mean survival time, dose: 100.0 mg/kg/injection, schedule: Q04DX002 (ip), vehicle: Klucel (hydroxypropylcellulose) (HPC) 98 % of control | endpoint: mean survival time, dose: 200.0 mg/kg/injection, schedule: Q04DX002 (ip), vehicle: Klucel (hydroxypropylcellulose) (HPC) 103 % of control | endpoint: mean survival time, dose: 400.0 mg/kg/injection, schedule: Q04DX002 (ip), vehicle: Klucel (hydroxypropylcellulose) (HPC) 92 % of control

NNC(=O)COc1ccc(Cl)cc1Cl
inactive: [4] 102 % of control | [5] 105 % of control | [6] 104 % of control

CC1=NCCCN=C(C)C(C)=NCCCN=C1C.[Ni+2].[O-][Cl+3]([O-])([O-])O
inactive: endpoint: mean survival time, dose: 25.0 mg/kg/injection, schedule: Q04DX003 (ip), vehicle: saline 91 % of control | endpoint: mean survival time, dose: 50.0 mg/kg/injection, schedule: Q04DX002 (ip), vehicle: saline with Tween-80 96 % of control | endpoint: mean survival time, dose: 50.0 mg/kg/injection, schedule: Q04DX003 (ip), vehicle: saline 94 % of control

O=C1O/C(=C\c2ccccc2)c2c(-c3ccccc3)ccc(-c3ccccc3)c21
inactive: [7] 95 % of control | [8] 95 % of control | [9] 95 % of control

COc1cc(Cl)ccc1NC(=O)OCCOc1ccc(Cl)cc1
inactive: [5] 91 % of control | [6] 88 % of control | [10] 91 % of control

CC(C)N1CCOCC1
inactive: endpoint: mean survival time, dose: 100.0 mg/kg/injection, schedule: Q04DX003 (ip), vehicle: acetone 100 % of control

c1ccc2c(c1)[nH]c1nc3ncncc3nc12
inactive: [1] 98 % of control | [2] 104 % of control | [3] 112 % of control

CCCSCC
inactive: [4] 98 % of control | [5] 106 % of control | [6] 95 % of control and 96 % of control

COc1cc([N+](=O)[O-])ccc1NC(=O)Nc1nccs1
inactive: [5] 96 % of control and 97 % of control | [7] 97 % of control | [11] 87 % of control | [12] 98 % of control | [8] 92 % of control | [10] 95 % of control and 100 % of control and 104 % of control | [13] 95 % of control | [14] 95 % of control | [9] 100 % of control | [15] 97 % of control | [16] 102 % of control | [17] 101 % of control

CCOC(=O)NN=C1CCCC1
inactive: endpoint: mean survival time, dose: 12.5 mg/kg/injection, schedule: Q01DX009 (ip), vehicle: saline with Tween-80 88 % of control | [4] 88 % of control | [5] 92 % of control

NCC(F)(F)C(F)(F)C(F)(F)CN
inactive: [5] 98 % of control | [6] 107 % of control | [10] 103 % of control

NCC(=O)NC(CSc1ccc([N+](=O)[O-])cc1[N+](=O)[O-])C(=O)NC(CCC(=O)O)C(=O)O (configuration not stated) (H-Gly-Cys(Dnp)-Glu-OH; configuration not given here)
inactive: [12] 103 % of control | [14] 101 % of control | [17] 98 % of control

CS(=O)(=O)OCCOS(C)(=O)=O
inactive: [6] 109 % of control | [12] 104 % of control | [10] 116 % of control | [14] 115 % of control | [17] 111 % of control

O=C(NC1CCC(CC2CCCCC2)CC1)C(Cl)Cl (configuration not stated)
inactive: [11] 101 % of control | [13] 101 % of control | [16] 89 % of control

CC1=CC(=O)C2C(C)(C)CCCC2(C)C1(O)CCc1ccoc1 (configuration not stated)
inactive: [11] 110 % of control | [13] 103 % of control | [16] 107 % of control

[CH3][Sb]([CH3])([CH3])([O]C(=O)C(Cl)(Cl)Cl)[O]C(=O)C(Cl)(Cl)Cl
inactive: [11] 98 % of control | [13] 107 % of control | [16] 103 % of control

COC(=O)Nc1ccc(OS(=O)(=O)N(C)C)cc1
inactive: [12] 103 % of control | [14] 98 % of control | [17] 103 % of control

Cc1ccc(-n2c(N)cc(=O)[nH]c2=S)nc1
inactive: [12] 95 % of control | [14] 100 % of control | [17] 95 % of control

CCCCCCCCCCCCOC(=O)c1ccc([N+](=O)[O-])cc1
inactive: [7] 94 % of control | [8] 91 % of control | [9] 91 % of control

CP(=O)(c1ccccc1)c1ccccc1
inactive: [7] 100 % of control | [8] 103 % of control | [9] 98 % of control

COc1ccc(Sc2cccc3c2C(=O)c2c(Sc4ccc(OC)cc4)cccc2C3=O)cc1
inactive: [6] 99 % of control | [10] 94 % of control | [15] 89 % of control

COc1cccc(C(O)c2ccncc2C)c1OC (configuration not stated)
inactive: endpoint: mean survival time, dose: 25.0 mg/kg/injection, schedule: Q01DX009 (ip), vehicle: Klucel (hydroxypropylcellulose) (HPC) 97 % of control | endpoint: mean survival time, dose: 50.0 mg/kg/injection, schedule: Q01DX009 (ip), vehicle: Klucel (hydroxypropylcellulose) (HPC) 97 % of control | endpoint: mean survival time, dose: 100.0 mg/kg/injection, schedule: Q01DX009 (ip), vehicle: Klucel (hydroxypropylcellulose) (HPC) 95 % of control | endpoint: mean survival time, dose: 200.0 mg/kg/injection, schedule: Q01DX009 (ip), vehicle: Klucel (hydroxypropylcellulose) (HPC) 98 % of control

ICC1CCC(CI)CC1 (configuration not stated)
inactive: endpoint: mean survival time, dose: 100.0 mg/kg/injection, schedule: Q01DX001 (ip), vehicle: saline 98 % of control | endpoint: mean survival time, dose: 200.0 mg/kg/injection, schedule: Q01DX001 (ip), vehicle: saline 96 % of control | endpoint: mean survival time, dose: 400.0 mg/kg/injection, schedule: Q01DX001 (ip), vehicle: saline 93 % of control

COc1ccc(/C=N/N=C/c2ccc(OC)cc2)cc1
inactive: endpoint: mean survival time, dose: 100.0 mg/kg/injection, schedule: Q04DX003 (ip), vehicle: Klucel (hydroxypropylcellulose) (HPC) 104 % of control | endpoint: mean survival time, dose: 200.0 mg/kg/injection, schedule: Q04DX003 (ip), vehicle: Klucel (hydroxypropylcellulose) (HPC) 100 % of control | endpoint: mean survival time, dose: 400.0 mg/kg/injection, schedule: Q04DX003 (ip), vehicle: Klucel (hydroxypropylcellulose) (HPC) 114 % of control

O=C(NC(Cc1ccccc1)C(=O)CCl)OCc1ccccc1 (configuration not stated)
inactive: endpoint: mean survival time, dose: 25.0 mg/kg/injection, schedule: Q04DX003 (ip), vehicle: saline with Tween-80 97 % of control | endpoint: mean survival time, dose: 50.0 mg/kg/injection, schedule: Q04DX003 (ip), vehicle: saline with Tween-80 100 % of control | [12] 109 % of control

O=C(O)NNC(=O)NO
inactive: endpoint: mean survival time, dose: 100.0 mg/kg/injection, schedule: Q01DX009 (ip), vehicle: saline sonified 97 % of control | endpoint: mean survival time, dose: 200.0 mg/kg/injection, schedule: Q01DX009 (ip), vehicle: saline sonified 103 % of control | endpoint: mean survival time, dose: 400.0 mg/kg/injection, schedule: Q01DX009 (ip), vehicle: saline sonified 101 % of control

c1ccc(SSc2ccccc2)cc1
inactive: [12] 100 % of control

C1=C(c2ccccc2)N(c2ccccc2)N=C(c2ccccc2)C1
inactive: [7] 94 % of control | [8] 94 % of control | [9] 98 % of control

O=C(NN(C(=O)c1ccccc1)c1ccccc1)c1ccccc1
inactive: [11] 100 % of control | [13] 107 % of control | [16] 103 % of control

CN1NC=Nc2c(SCc3ccccc3)ncnc21
inactive: endpoint: mean survival time, dose: 75.0 mg/kg/injection, schedule: Q01DX001 (ip), vehicle: other 98 % of control

Nc1nc(N)c(-c2cccc(Cl)c2)c(COc2ccc(NC(=O)Nc3cccc(S(=O)(=O)F)c3)cc2)n1
inactive: endpoint: mean survival time, dose: 37.5 mg/kg/injection, schedule: Q01DX001 (ip), vehicle: saline with Tween-80 100 % of control | endpoint: mean survival time, dose: 75.0 mg/kg/injection, schedule: Q01DX001 (ip), vehicle: saline with Tween-80 91 % of control | endpoint: mean survival time, dose: 150.0 mg/kg/injection, schedule: Q01DX001 (ip), vehicle: saline with Tween-80 92 % of control

Clc1ccc2c(CBr)ccnc2c1
inactive: endpoint: mean survival time, dose: 50.0 mg/kg/injection, schedule: Q04DX003 (ip), vehicle: other 110 % of control | endpoint: mean survival time, dose: 100.0 mg/kg/injection, schedule: Q04DX003 (ip), vehicle: other 112 % of control

O=C1OC(=O)[C@H]2[C@@H]1[C@H]1C=C[C@@H]2OC1=O
inactive: endpoint: median survival time, dose: 12.5 mg/kg/injection, schedule: Q01DX009 (ip), vehicle: saline 98 % of control | endpoint: median survival time, dose: 25.0 mg/kg/injection, schedule: Q01DX009 (ip), vehicle: saline 104 % of control | endpoint: median survival time, dose: 50.0 mg/kg/injection, schedule: Q01DX009 (ip), vehicle: saline 104 % of control | endpoint: median survival time, dose: 100.0 mg/kg/injection, schedule: Q01DX009 (ip), vehicle: saline 104 % of control | endpoint: median survival time, dose: 200.0 mg/kg/injection, schedule: Q01DX009 (ip), vehicle: saline 96 % of control

From PubChem BioAssay AID256 (DTP/NCI, 2004)
